The values that follow come from US5120842A, “Silyl ethers of rapamycin” (American Home Products Corporation, priority 1991, dated 1992).

The term IC50 denotes the midpoint of a concentration-inhibition curve. The term MIC denotes the smallest concentration in the dilution series that meets the test's criterion for growth inhibition.

Test [1] has as its system cells from the thymus of normal BALB/c mice (lymphocyte proliferation). Kind of test: comitogen-induced thymocyte proliferation procedure (LAF). The test is classed as cell-based. To be noted: Mus musculus. The protocol:
Immunosuppressive activity was evaluated in an in vitro standard pharmacological test procedure to measure lymphocyte proliferation (LAF).
Briefly, cells from the thymus of normal BALB/c mice are cultured for 72 hours with PHA and IL-1 and pulsed with tritiated thymidine during the last six hours. Cells are cultured with and without various concentrations of rapamycin, cyclosporin A, or test compound. Cells are harvested and incorporated radioactivity is determined. Inhibition of lymphoproliferation is assessed as percent change in counts per minute from non-drug treated controls. The results are expressed as an IC50.

In test [2] the test system is Candida albicans 3669. Kind of test: antifungal plate test procedure. The test is classed as cell-based. To be noted: strain 3669, plate disk test, read-out: MIC to inhibit growth. How it is done:
(§1) Antifungal activity of a representative compound of this invention was measured against 5 strains of Candida albicans using a plate test procedure for measurement of inhibition. The following represents the typical procedure used. Compound to be tested was placed on sterile dried 1/4" plate disks, and allowed to dry. Agar plates were seeded with fungi and allowed to solidify. The impregnated disks were placed on the seeded Agar surface and incubated for the time required for the particular culture.

The subject of test [3] is Candida albicans ATCC 10231. Kind of test: antifungal plate test procedure. Particulars: ATCC10231, strain ATCC 10231, plate disk test, read-out: MIC to inhibit growth. The test is classed as cell-based. The protocol: as §1
The subject of test [4] is Candida albicans ATCC 38246. Kind of test: antifungal plate test procedure. The test is classed as cell-based. Particulars: ATCC38246, strain ATCC 38246, plate disk test, read-out: MIC to inhibit growth. How it is done:
as §1

Test [5] relates to Candida albicans ATCC 38247. Kind of test: antifungal plate test procedure. The test is classed as cell-based. Particulars: ATCC38247, strain ATCC 38247, plate disk test, read-out: MIC to inhibit growth. The protocol:
as §1

The subject of test [6] is Candida albicans ATCC 38248. Kind of test: antifungal plate test procedure. The test is classed as cell-based. Particulars: ATCC38248, strain ATCC 38248, plate disk test, read-out: MIC to inhibit growth. The protocol: as §1
Test [7] has as its system Candida albicans. Particulars: in vitro and in vivo; cited from earlier work.
The conditions of test [8]: cited from earlier work.
The conditions of test [9]: model for multiple sclerosis; cited from earlier work.
For test [10] the following is noted: model for rheumatoid arthritis; cited from earlier work.
Test [11] relates to IgE-like antibodies. Particulars: in vivo; cited from earlier work.
[12] abbreviates: read-out: IC50 (LAF), 72 h culture with PHA and IL-1, tritiated thymidine last six hours, table 1.

Values after ≈ are worked out from the molar mass of the structure shown. Read-outs that look alike come from different tables or passages of the source. Some results are limits rather than exact numbers.

As to `CO[C@H]1C[C@@H]2CC[C@@H](C)[C@@](O)(O2)C(=O)C(=O)N2CCCC[C@H]2C(=O)O[C@H]([C@H](C)C[C@@H]2CC[C@@H](O)[C@H](OC)C2)CC(=O)[C@H](C)/C=C(\C)[C@@H](OC(C)=O)[C@@H](OC)C(=O)[C@H](C)C[C@H](C)/C=C/C=C/C=C/1C` [rapamycin-31-acetate, Rapamycin 31-acetate], in [1] (rapamycin-31-acetate and rapamycin evaluated contemporaneously, read-out: IC50 (LAF)), the IC50 turned out to be 0.0565 µM.

Regarding `CO[C@H]1C[C@@H]2CC[C@@H](C)[C@@](O)(O2)C(=O)C(=O)N2CCCC[C@H]2C(=O)O[C@H]([C@H](C)C[C@@H]2CC[C@@H](O[Si](C)(C)C(C)(C)C)[C@H](OC)C2)CC(=O)[C@H](C)/C=C(\C)[C@@H](O)[C@@H](OC)C(=O)[C@H](C)C[C@H](C)/C=C/C=C/C=C/1C` [Example 1, Rapamycin 42-O-[(1,1-Dimethylethyl)dimethylsilyl]ether], in test [1] (setting [12]), the IC50 worked out at 0.0458 µM. Besides, the MIC was over 0.4 mg/L in [2]; 0.2 mg/L (≈ 0.194 µM) in test [3]; over 0.4 mg/L in test [4]; 0.2 mg/L (≈ 0.194 µM) in [5]; over 0.4 mg/L in [6].

`CO[C@H]1C[C@@H]2CC[C@@H](C)[C@@](O)(O2)C(=O)C(=O)N2CCCC[C@H]2C(=O)O[C@H]([C@H](C)C[C@@H]2CC[C@@H](O)[C@H](OC)C2)CC(=O)[C@H](C)/C=C(\C)[C@@H](O)[C@@H](OC)C(=O)[C@H](C)C[C@H](C)/C=C/C=C/C=C/1C` [Rapamycin]: the IC50 in [1] (setting [12]) was 0.0032 µM; in test [1] (read-out: IC50 (LAF), rapamycin-31-acetate and rapamycin evaluated contemporaneously), 0.0078 µM. The MIC in test [2] amounted to 0.025 mg/L (≈ 0.0273 µM); in test [3], 0.003 mg/L (≈ 0.00328 µM); in [4], 0.025 mg/L (≈ 0.0273 µM); in test [5], 0.003 mg/L (≈ 0.00328 µM); in test [6], 0.006 mg/L (≈ 0.00656 µM). Moreover, in [7], the antifungal activity entry was “antifungal activity, particularly against Candida albicans, both in vitro and in vivo”. Besides, the antitumor activity entry in test [8] (in combination with picibanil) and in test [8] (rapamycin alone) was “shown to have antitumor activity” in each case. In addition, the “effect in experimental allergic encephalomyelitis model” value in [9] is “effective”. Besides, the “effect in adjuvant arthritis model” value in test [10] is “effective”. The “inhibition of formation of IgE-like antibodies” value in test [11] is “effectively inhibited the formation of IgE-like antibodies”.
